Where a SMILES comes first, the peptide text is derived from it. Bridges are numbered along the chain shown (N, C = ends). [ ]: non-standard residue; d: D form. The star is where a group is joined. Val(Nα-amidino) = CC(C)[C@H](NC(=N)N)C(=O)*; Hyp = O=C(O)[C@@H]1C[C@@H](O)CN1; Cit = NC(=O)NCCC[C@H](N)C(=O)O; Pen = CC(C)(S)[C@H](N)C(=O)O; ΔPro = O=C(O)[C@@H]1C=CCN1; dDab = NCC[C@@H](N)C(=O)O; Dab = NCC[C@H](N)C(=O)O
Assays:
Format in all cases: cell-based
[1] = tested on: human red blood cells (hRBC); conditions: red cells of human, 1 h, 200 μg/mL
Outline: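 Peptides at 200 μg/mL incubated 1 h at 37 °C with 20% (v/v) washed human RBC, shaking. Hemolysis from supernatant OD540, expressed as percent of 2.5% Triton X-100 lysis, with PBS as 0%.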

[2] = tested on: Klebsiella pneumoniae SSI3010; conditions: SSI3010
Outline: (§1)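 MICs were determined by CLSI broth microdilution in cation-adjusted Mueller-Hinton II broth with about 5×10^5 CFU/mL inoculum. Peptides were tested in two-fold serial dilutions with 0.002% polysorbate 80 final. MIC in μg/mL is the lowest concentration with no visible growth after 18-20 h at 35 °C.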

[3] = tested on: Escherichia coli ATCC 25922; conditions: ATCC 25922
Outline: as §1

[4] = tested on: Escherichia coli MCR-1 Af 45; conditions: MCR-1 Af 45
Outline: as §1

SMILES	Hemolysis at 0.2 g/L [1] [%]	Klebsiella pneumoniae SSI3010 MIC [2] [µg/mL]	Escherichia coli ATCC 25922 MIC [3] [µg/mL]	Escherichia coli MCR-1 Af45 MIC [4] [µg/mL]
CC[C@H](C)[C@H](NC(=O)[C@@H]1C[C@@H](O)CN1C(=O)[C@@H](NC(=N)N)C(C)C)C(=O)N[C@@H]1C(=O)N[C@@H](Cc2ccc(O)cc2)C(=O)N[C@@H](CO)C(=O)N[C@@H](CC(N)=O)C(=O)N[C@@H](CCCNC(=N)N)C(=O)N[C@@H](CCN)C(=O)N[C@@H]([C@@H](C)O)C(=O)N[C@H](CCN)C(=O)N[C@@H](CCCNC(N)=O)C(=O)N[C@@H](CCN)C(=O)N[C@@H](CCN)C(=O)N[C@H](C(=O)N[C@@H](Cc2ccc(O)cc2)C(=O)O)CSSC1(C)C [Example 106, Gua-Val-Hyp-Ile-Pen-Tyr-Ser-Asn-Arg-Dab-Thr-^DDab-Cit-Dab-Dab-Cys-Tyr] ({Val(Nα-amidino)}-[Hyp]I[Pen]YSNR[Dab]T[dDab][Cit][Dab][Dab]CY-OH; disulfide 3-14)	<1	0.25	0.125	0.125
CC[C@H](C)[C@H](NC(=O)[C@@H]1C[C@@H](O)CN1C(=O)[C@@H](NC(=N)N)C(C)C)C(=O)N[C@@H]1C(=O)N[C@@H](Cc2ccc(O)cc2)C(=O)N[C@@H](CO)C(=O)N[C@@H](CC(N)=O)C(=O)N[C@@H](CCCNC(=N)N)C(=O)N[C@@H](CCN)C(=O)N[C@@H]([C@@H](C)O)C(=O)N[C@H](CCN)C(=O)N[C@@H](CC(N)=O)C(=O)N[C@@H](CCN)C(=O)N[C@@H](CCN)C(=O)N[C@H](C(=O)N[C@@H](Cc2ccc(O)cc2)C(=O)O)CSSC1(C)C [Example 107, Gua-Val-Hyp-Ile-Pen-Tyr-Ser-Asn-Arg-Dab-Thr-^DDab-Asn-Dab-Dab-Cys-Tyr] ({Val(Nα-amidino)}-[Hyp]I[Pen]YSNR[Dab]T[dDab]N[Dab][Dab]CY-OH; disulfide 3-14)	<1	0.25	0.125	0.125
CC[C@H](C)[C@H](NC(=O)[C@@H]1C[C@@H](O)CN1C(=O)[C@@H](NC(=N)N)C(C)C)C(=O)N[C@@H]1C(=O)N[C@@H](Cc2ccc(O)cc2)C(=O)N[C@@H]([C@@H](C)O)C(=O)N[C@@H](CC(N)=O)C(=O)N[C@@H](CCCNC(=N)N)C(=O)N[C@@H](CCN)C(=O)N[C@@H]([C@@H](C)O)C(=O)N[C@H](CCN)C(=O)N[C@@H](CCCCN)C(=O)N[C@@H](CCN)C(=O)N[C@@H](CO)C(=O)N[C@H](C(=O)N[C@@H](Cc2ccc(O)cc2)C(=O)O)CSSC1(C)C [Example 108, Gua-Val-Hyp-Ile-Pen-Tyr-Thr-Asn-Arg-Dab-Thr-Dab-Lys-Dab-S-Cys-Tyr] ({Val(Nα-amidino)}-[Hyp]I[Pen]YTNR[Dab]T[dDab]K[Dab]SCY-OH; disulfide 3-14)	<1	0.25	0.25	0.125
CC[C@H](C)[C@H](NC(=O)[C@@H]1C=CCN1C(=O)[C@@H](NC(=N)N)C(C)C)C(=O)N[C@@H]1C(=O)N[C@@H](Cc2ccc(O)cc2)C(=O)N[C@@H]([C@@H](C)O)C(=O)N[C@@H](CC(N)=O)C(=O)N[C@@H](CCCNC(=N)N)C(=O)N[C@@H](CCN)C(=O)N[C@@H]([C@@H](C)O)C(=O)N[C@H](CCN)C(=O)N[C@@H](CCCCN)C(=O)N[C@@H](CCN)C(=O)N[C@@H](CCN)C(=O)N[C@H](C(=O)N[C@@H](Cc2ccc(O)cc2)C(=O)O)CSSC1(C)C [Example 109, Gua-Val-Pro(3,4dehydro)-Ile-Pen-Tyr-Thr-Asn-Arg-Dab-Thr-^DDab-Lys-Dab-Dab-Cys-Tyr] ({Val(Nα-amidino)}-[ΔPro]I[Pen]YTNR[Dab]T[dDab]K[Dab][Dab]CY-OH; disulfide 3-14)	<1	0.125	0.0625	0.03125
CC[C@H](C)[C@H](NC(=O)[C@@H]1C=CCN1C(=O)[C@@H](NC(=N)N)C(C)C)C(=O)N[C@@H]1C(=O)N[C@@H](Cc2ccc(O)cc2)C(=O)N[C@@H](CO)C(=O)N[C@@H](CC(N)=O)C(=O)N[C@@H](CCCNC(=N)N)C(=O)N[C@@H](CCN)C(=O)N[C@@H]([C@@H](C)O)C(=O)N[C@H](CCN)C(=O)N[C@@H](CCCCN)C(=O)N[C@@H](CCN)C(=O)N[C@@H](CCN)C(=O)N[C@H](C(=O)N[C@@H](Cc2ccc(O)cc2)C(=O)O)CSSC1(C)C [Example 110, Gua-Val-Pro(3,4dehydro)-Ile-Pen-Tyr-Ser-Asn-Arg-Dab-Thr-^DDab-Lys-Dab-Dab-Cys-Tyr] ({Val(Nα-amidino)}-[ΔPro]I[Pen]YSNR[Dab]T[dDab]K[Dab][Dab]CY-OH; disulfide 3-14)	<1	0.125	0.0625	0.0625
CC[C@H](C)[C@H](NC(=O)[C@@H]1C=CCN1C(=O)[C@@H](NC(=N)N)C(C)C)C(=O)N[C@@H]1C(=O)N[C@@H](Cc2ccc(O)cc2)C(=O)N[C@@H]([C@@H](C)O)C(=O)N[C@@H](CC(N)=O)C(=O)N[C@@H](CCCNC(=N)N)C(=O)N[C@@H](CCN)C(=O)N[C@@H]([C@@H](C)O)C(=O)N[C@H](CCN)C(=O)N[C@@H](CO)C(=O)N[C@@H](CCN)C(=O)N[C@@H](CCN)C(=O)N[C@H](C(=O)N[C@@H](Cc2ccc(O)cc2)C(=O)O)CSSC1(C)C [Example 111, Gua-Val-Pro(3,4dehydro)-Ile-Pen-Tyr-Thr-Asn-Arg-Dab-Thr-^DDab-Ser-Dab-Dab-Cys-Tyr] ({Val(Nα-amidino)}-[ΔPro]I[Pen]YTNR[Dab]T[dDab]S[Dab][Dab]CY-OH; disulfide 3-14)	<1	0.125	0.125	0.0625
CC[C@H](C)[C@H](NC(=O)[C@@H]1C[C@@H](O)CN1C(=O)[C@@H](NC(=N)N)C(C)C)C(=O)N[C@H]1CCNC(=O)CC[C@@H](C(=O)N[C@@H](Cc2ccc(O)cc2)C(=O)O)NC(=O)[C@H](CCN)NC(=O)[C@H](CCN)NC(=O)[C@H](CO)NC(=O)[C@@H](CCN)NC(=O)[C@H]([C@@H](C)O)NC(=O)[C@H](CCN)NC(=O)[C@H](CCCNC(=N)N)NC(=O)[C@H](CC(N)=O)NC(=O)[C@H]([C@@H](C)O)NC(=O)[C@H](Cc2ccc(O)cc2)NC1=O [Example 112, Gua-Val-Hyp-Ile-Dab-Tyr-Thr-Asn-Arg-Dab-Thr-^DDab-Ser-Dab-Dab-Glu-Tyr] ({Val(Nα-amidino)}-[Hyp]I[Dab]YTNR[Dab]T[dDab]S[Dab][Dab]EY-OH; lactam 3-14)	<1	0.25	0.125	0.125
CC[C@H](C)[C@H](NC(=O)[C@@H]1C[C@@H](O)CN1C(=O)[C@@H](NC(=N)N)C(C)C)C(=O)N[C@H]1CCNC(=O)CC[C@@H](C(=O)N[C@@H](Cc2ccc(O)cc2)C(=O)O)NC(=O)[C@H](CCN)NC(=O)[C@H](CCN)NC(=O)[C@H]([C@@H](C)O)NC(=O)[C@@H](CCN)NC(=O)[C@H]([C@@H](C)O)NC(=O)[C@H](CCN)NC(=O)[C@H](CCCNC(=N)N)NC(=O)[C@H](CC(N)=O)NC(=O)[C@H]([C@@H](C)O)NC(=O)[C@H](Cc2ccc(O)cc2)NC1=O [Example 113, Gua-Val-Hyp-Ile-Dab-Tyr-Thr-Asn-Arg-Dab-Thr-^DDab-Thr-Dab-Dab-Glu-Tyr] ({Val(Nα-amidino)}-[Hyp]I[Dab]YTNR[Dab]T[dDab]T[Dab][Dab]EY-OH; lactam 3-14)	<1	0.25	0.125	0.125
CC[C@H](C)[C@H](NC(=O)[C@@H]1C[C@@H](O)CN1C(=O)[C@@H](NC(=N)N)C(C)C)C(=O)N[C@H]1CCNC(=O)CC[C@@H](C(=O)N[C@@H](Cc2ccc(O)cc2)C(=O)O)NC(=O)[C@H](CCN)NC(=O)[C@H](CCN)NC(=O)[C@H](CCCNC(N)=O)NC(=O)[C@@H](CCN)NC(=O)[C@H]([C@@H](C)O)NC(=O)[C@H](CCN)NC(=O)[C@H](CCCNC(=N)N)NC(=O)[C@H](CC(N)=O)NC(=O)[C@H]([C@@H](C)O)NC(=O)[C@H](Cc2ccc(O)cc2)NC1=O [Example 114, Gua-Val-Hyp-Ile-Dab-Tyr-Thr-Asn-Arg-Dab-Thr-^DDab-Cit-Dab-Dab-Glu-Tyr] ({Val(Nα-amidino)}-[Hyp]I[Dab]YTNR[Dab]T[dDab][Cit][Dab][Dab]EY-OH; lactam 3-14)	<1	0.5	0.125	0.125
CC[C@H](C)[C@H](NC(=O)[C@@H]1C[C@@H](O)CN1C(=O)[C@@H](NC(=N)N)C(C)C)C(=O)N[C@@H]1C(=O)N[C@@H](Cc2ccc(O)cc2)C(=O)N[C@@H](CCCNC(N)=O)C(=O)N[C@@H](CC(N)=O)C(=O)N[C@@H](CCCNC(=N)N)C(=O)N[C@@H](CCN)C(=O)N[C@@H]([C@@H](C)O)C(=O)N[C@H](CCN)C(=O)N[C@@H](CCCCN)C(=O)N[C@@H](CCN)C(=O)N[C@@H](CCN)C(=O)N[C@H](C(=O)N[C@@H](Cc2ccc(O)cc2)C(=O)O)CSSC1(C)C [Example 115, Gua-Val-Hyp-Ile-Pen-Tyr-Cit-Asn-Arg-Dab-Thr-^DDab-Lys-Dab-Dab-Cys-Tyr] ({Val(Nα-amidino)}-[Hyp]I[Pen]Y[Cit]NR[Dab]T[dDab]K[Dab][Dab]CY-OH; disulfide 3-14)	<1	0.125	0.125	0.0625
